The test system of this series is GENE-TOX genotoxicity assays, various organisms and cells. Kind of series: GENE-TOX mutagenicity studies. As to conditions: for call: Assay Type: In vivo carcinogenicity studies.
Where [1] appears, read: Species/Cell Type: Mouse, Sex: Male, Assay Type: Sperm morphology, Assay Code: SPI-, Evaluation Type: Evaluation A (Pre-1980).
[2] abbreviates: Species/Cell Type: Nonhuman, Assay Type: Sister-chromatid exchange (SCE) in vitro, Assay Code: SC2T, Evaluation Type: Evaluation B (Post-1980).
The mark [3] stands for this setting: Species/Cell Type: Nonhuman, Assay Type: Sister-chromatid exchange (SCE) in vivo, Assay Code: SC3T, Evaluation Type: Evaluation B (Post-1980).
Where [4] appears, read: Species/Cell Type: Nonhuman, Assay Code: CCGT, Evaluation Type: Evaluation A (Pre-1980).
[5] abbreviates: Species/Cell Type: Salmonella typhimurium (one or more of the five standard strains: TA98, TA100, TA1535, TA1537, and TA1538), Assay Type: Histidine reverse gene mutation, Ames assay, Assay Code: SALT, Evaluation Type: Evaluation A (Pre-1980).
Where [6] appears, read: Species/Cell Type: Mammalian polychromatic erythrocytes, Assay Type: Micronucleus test, chromosome aberrations, Assay Code: MNTT, Evaluation Type: Evaluation B (Post-1980).
Setting [7] is: Species/Cell Type: Salmonella typhimurium (one or more of the five standard strains: TA98, TA100, TA1535, TA1537, and TA1538), Assay Type: Histidine reverse gene mutation, Ames assay, Assay Code: SAL-, Evaluation Type: Evaluation A (Pre-1980).
[8] abbreviates: Species/Cell Type: Salmonella typhimurium (one or more of the five standard strains: TA98, TA100, TA1535, TA1537, and TA1538), Assay Type: Histidine reverse gene mutation, Ames assay, Assay Code: SAL+, Evaluation Type: Evaluation A (Pre-1980).
Where [9] appears, read: Species/Cell Type: Human lymphocytes, Assay Type: Sister-chromatid exchange (SCE) in vitro, Assay Code: SCLT, Evaluation Type: Evaluation B (Post-1980).
The mark [10] stands for this setting: Species/Cell Type: Human, Assay Type: Sister-chromatid exchange (SCE) in vitro, Assay Code: SC1T, Evaluation Type: Evaluation B (Post-1980).

The source made the active and inactive calls. No rule for the calls is given here.

Regarding `FC(F)(F)C(Cl)Br` (configuration not stated), the mutagenic call is “inactive; negative” (Species/Cell Type: Chinese hamster lung (V79) cells, Assay Type: Forward gene mutation at the HPRT or ouabain locus, Assay Code: V79-, Evaluation Type: Evaluation A (Pre-1980)); “active; positive” (Species/Cell Type: Drosophila melanogaster, Assay Type: Sex-linked recessive lethal gene mutation, Assay Code: SRL+, Evaluation Type: Evaluation A (Pre-1980)); “active; positive” (Species/Cell Type: Human lymphocytes, Assay Type: Sister-chromatid exchange (SCE) in vivo, Assay Code: SCY+, Evaluation Type: Evaluation B (Post-1980)); “inactive; negative” under setting [1]; “no conclusion” under setting [2]; “no conclusion” under setting [3]. Moreover, the mutagenic call (Species/Cell Type: Saccharomyces cerevisiae, Assay Type: Mitotic recombination or gene conversion, Assay Code: YEC+, Evaluation Type: Evaluation A (Pre-1980)) was “active; positive”; the mutagenic call (Species/Cell Type: Saccharomyces cerevisiae, Assay Type: Mitotic recombination or gene conversion, Assay Code: YEH+, Evaluation Type: Evaluation A (Pre-1980)) is “active; positive”; the mutagenic call (Species/Cell Type: Saccharomyces cerevisiae, Assay Type: Reverse gene mutation, Assay Code: YER+, Evaluation Type: Evaluation A (Pre-1980)) is “active; positive”; the mutagenic call (Species/Cell Type: Vicia faba, Assay Type: Chromosome aberrations, Assay Code: VIC+D, Dose Response: With dose response, Evaluation Type: Evaluation A (Pre-1980)) is “active; positive”. The call (Species/Cell Type: Nonhuman, Assay Code: CCG-L, Evaluation Type: Evaluation A (Pre-1980)) was “inactive; negative”.
Consider `Cc1c2ccccc2c(C)c2c1ccc1cc(O)ccc12`, for which, for the setting “Species/Cell Type: Chinese hamster lung (V79) cells, Assay Type: Forward gene mutation at the HPRT or ouabain locus, Assay Code: V79-*, Activation: With metabolic activation, Evaluation Type: Evaluation A (Pre-1980)”, the mutagenic call was “inactive; negative”. For the same compound, the call under setting [4] is on record as “no conclusion”.
For the compound `COc1ccc2c3c([nH]c2c1)C(C)=NCC3`, the mutagenic call under setting [5] is on record as “no conclusion”.
The same measure, in the same setting: the value for `CCc1nc(N)nc(N)c1-c1ccc(Cl)cc1` was “no conclusion”.
With `Cc1ccc(S(=O)(=O)NCl)cc1`, under setting [6], the mutagenic call is “no conclusion”.
`Nc1ccccc1`: the mutagenic call is, setting by setting: (Species/Cell Type: Allium cepa, Assay Type: Chromosome aberrations, Assay Code: ALCT, Evaluation Type: Evaluation A (Pre-1980)) “no conclusion”; (Species/Cell Type: Escherichia coli polA (W3110 vs P3478), Assay Type: Rec-assay, DNA effects (bacterial DNA repair), Assay Code: RE2-, Evaluation Type: Evaluation A (Pre-1980)) “inactive; negative”; (Species/Cell Type: Escherichia coli polA (W3119 vs P3478), Assay Type: Rec-assay, DNA effects (bacterial DNA repair), Assay Code: RE1+, Evaluation Type: Evaluation A (Pre-1980)) “active; positive”; (Species/Cell Type: Fischer rat embryo (RLV/1706) cells, Assay Type: Cell transformation, viral enhanced, Assay Code: CTR+, Evaluation Type: Evaluation A (Pre-1980)) “active; positive”; (Species/Cell Type: Human lymphocytes, Assay Type: Sister-chromatid exchange (SCE) in vitro, Assay Code: SCL+, Evaluation Type: Evaluation B (Post-1980)) “active; positive”; (Species/Cell Type: Human, Assay Type: Sister-chromatid exchange (SCE) in vitro, Assay Code: SC1+, Evaluation Type: Evaluation B (Post-1980)) “active; positive”. In addition, the mutagenic call was “no conclusion” under setting [6]; “active; positive” (Species/Cell Type: Mouse (BALB/c-3T3) cells, Assay Type: Cell transformation, Assay Code: CTB+D, Dose Response: With dose response, Evaluation Type: Evaluation A (Pre-1980)); “inactive; negative” under setting [1]; “active; positive” (Species/Cell Type: Nonhuman, Assay Type: Sister-chromatid exchange (SCE) in vitro, Assay Code: SC2+D, Dose Response: With dose response, Evaluation Type: Evaluation A (Pre-1980)); “active; positive” (Species/Cell Type: Nonhuman, Assay Type: Sister-chromatid exchange (SCE) in vivo, Assay Code: SC3+D, Dose Response: With dose response, Evaluation Type: Evaluation B (Post-1980)); “inactive; negative” (Species/Cell Type: Saccharomyces cerevisiae, Assay Type: Mitotic recombination or gene conversion, Assay Code: YEH-, Evaluation Type: Evaluation A (Pre-1980)). The mutagenic call is, setting by setting: under setting [7], “inactive; negative”; (Species/Cell Type: Syrian hamster embryo (SHE) cells, Assay Type: Cell transformation, clonal assay, Assay Code: CTC-, Evaluation Type: Evaluation A (Pre-1980)) “inactive; negative”. In addition, the call is, setting by setting: (Species/Cell Type: Nonhuman, Assay Code: CCG+L, Evaluation Type: Evaluation A (Pre-1980)) “active; positive”; under setting [4], “no conclusion”.
Turning to `[O-][Cl+]O`, under setting [6], the mutagenic call is “no conclusion”.
`CCN(CC)CCNc1ccc(COC(=O)c2ccco2)c2sc3ccccc3c(=O)c12`: the mutagenic call under setting [8] is “active; positive”.
With `COCC(O)Cn1ccnc1[N+](=O)[O-]` (configuration not stated), the mutagenic call (Species/Cell Type: Escherichia coli WP2 UVRA, Assay Type: Tryptophan reverse gene mutation, Assay Code: WPU+D, Dose Response: With dose response, Evaluation Type: Evaluation A (Pre-1980)) was “active; positive”; the mutagenic call (Species/Cell Type: Mouse (C3H/10T1/2) cells, Assay Type: Cell transformation, Assay Code: CTH+D, Dose Response: With dose response, Evaluation Type: Evaluation A (Pre-1980)) is “active; positive”; the mutagenic call (Species/Cell Type: Nonhuman, Assay Type: Sister-chromatid exchange (SCE) in vitro, Assay Code: SC2+D, Dose Response: With dose response, Evaluation Type: Evaluation B (Post-1980)) was “active; positive”; the mutagenic call under setting [3] is given as “no conclusion”; the mutagenic call under setting [8] is “active; positive”.
For `ClC1=CC(c2cc(Cl)ccc2Cl)=C(Cl)[C@H]2O[C@@H]12`, the mutagenic call under setting [5] is “no conclusion”.
Regarding `COc1cccc2c1cc([N+](=O)[O-])c1c(C(=O)O)cc3c(c12)OCO3`, the mutagenic call (Species/Cell Type: Human lymphocytes, Assay Type: Sister-chromatid exchange (SCE) in vitro, Assay Code: SCL+D, Dose Response: With dose response, Evaluation Type: Evaluation B (Post-1980)) was “active; positive” and the mutagenic call (Species/Cell Type: Human, Assay Type: Sister-chromatid exchange (SCE) in vitro, Assay Code: SC1+D, Dose Response: With dose response, Evaluation Type: Evaluation B (Post-1980)) was “active; positive”.
On to `OC1C=Cc2cc3ccc4cccc5ccc(c2C1O)c3c45` (configuration not stated), for which, where the note is “Species/Cell Type: Mouse prostate cells, Assay Type: Cell transformation, Assay Code: CTM+, Evaluation Type: Evaluation A (Pre-1980)”, the mutagenic call was “active; positive”.
`OCc1ccco1`: the mutagenic call runs as follows: under setting [9], “no conclusion”; under setting [10], “no conclusion”.
For `CN(C)c1ccc(N=Nc2ccc(S(=O)(=O)O)cc2)cc1`, the mutagenic call by setting is: (Species/Cell Type: Bacillus subtilis (H17 vs M45T), Assay Type: Rec-assay, spot test, DNA effects (bacterial DNA repair), Assay Code: REXT, Evaluation Type: Evaluation A (Pre-1980)) “no conclusion”; (Species/Cell Type: Mammalian polychromatic erythrocytes, Assay Type: Micronucleus test, chromosome aberrations, Assay Code: MNTT, Evaluation Type: Evaluation A (Pre-1980)) “no conclusion”; under setting [1], “inactive; negative”; (Species/Cell Type: Nonhuman, Assay Type: Sister-chromatid exchange (SCE) in vitro, Assay Code: SC2+, Evaluation Type: Evaluation B (Post-1980)) “active; positive”; under setting [7], “inactive; negative”.
For the compound `C/C=C/C#CC#CC#C/C=C/C(O)CO` (configuration not stated), under setting [2], the mutagenic call was “no conclusion”.
Turning to `Cc1ccc2c(C)c3ccc4ccccc4c3nc2c1`, the mutagenic call (Species/Cell Type: Salmonella typhimurium (one or more of the five standard strains: TA98, TA100, TA1535, TA1537, and TA1538), Assay Type: Histidine reverse gene mutation, Ames assay, Assay Code: SAL+*, Activation: With metabolic activation, Evaluation Type: Evaluation A (Pre-1980)) is “active; positive”.
Take `COC(=O)Cc1ccc(OC)c(CSC(=N)N)c1`: under “Species/Cell Type: Saccharomyces cerevisiae, Assay Type: Reverse gene mutation, Assay Code: YERT, Evaluation Type: Evaluation A (Pre-1980)”, the mutagenic call is “no conclusion”.
As to `O=S(O)S(=O)O`, the mutagenic call is listed as “no conclusion” under setting [9] and “no conclusion” under setting [10].
On to `O[C@H]1[C@@H]2O[C@@H]2c2cc3ccc4cccc5ccc(c2[C@@H]1O)c3c45`, for which the mutagenic call (Species/Cell Type: Mouse prostate cells, Assay Type: Cell transformation, Assay Code: CTM-, Evaluation Type: Evaluation A (Pre-1980)) was “inactive; negative”.
`C=CC(O)c1ccc2c(c1)OCO2` (configuration not stated): the mutagenic call is “no conclusion” (Species/Cell Type: Drosophila melanogaster, Assay Type: Sex-linked recessive lethal gene mutation, Assay Code: SRLT, Evaluation Type: Evaluation A (Pre-1980)); “inactive; negative” (Species/Cell Type: Escherichia coli polA (W3119 vs P3478), Assay Type: Rec-assay, DNA effects (bacterial DNA repair), Assay Code: RE1-, Evaluation Type: Evaluation A (Pre-1980)); “active; positive” (Species/Cell Type: Human diploid fibroblasts, Assay Type: Unscheduled DNA synthesis (UDS) in vitro, DNA effects, Assay Code: UDH+, Evaluation Type: Evaluation A (Pre-1980)); “inactive; positive without activation, negative with activation” (Species/Cell Type: Saccharomyces cerevisiae, Assay Type: Mitotic recombination or gene conversion, Assay Code: YEH+/-*, Activation: With metabolic activation, Evaluation Type: Evaluation A (Pre-1980)); “inactive; negative” under setting [7]. In addition, the call (Species/Cell Type: Nonhuman, Assay Code: CCG+, Evaluation Type: Evaluation A (Pre-1980)) is “active; positive”.

The values are drawn from PubChem BioAssay AID1259408 (Genetic Toxicology Data Bank (GENE-TOX), 2018).
